Where a SMILES comes first, the peptide text is derived from it. Bridges are numbered along the chain shown (N, C = ends). [ ]: non-standard residue; d: D form. The star is where a group is joined. ξ: configuration not given here. Phe(3-CF3) = N[C@@H](Cc1cccc(C(F)(F)F)c1)C(=O)O; Ala(morpholin-4-yl) = N[C@@H](CN1CCOCC1)C(=O)O; Phe(4-COOH) = N[C@@H](Cc1ccc(C(=O)O)cc1)C(=O)O; Bip = N[C@@H](Cc1ccc(-c2ccccc2)cc1)C(=O)O; Phe(3-Cl) = N[C@@H](Cc1cccc(Cl)c1)C(=O)O; Phe(3-OMe) = COc1cccc(C[C@H](N)C(=O)O)c1; Phe(3-Me) = Cc1cccc(C[C@H](N)C(=O)O)c1; Phe(4-Me) = Cc1ccc(C[C@H](N)C(=O)O)cc1; Val(3-OH) = CC(C)(O)[C@H](N)C(=O)O; ξW = NC(Cc1c[nH]c2ccccc12)C(=O)O; 4Pal = N[C@@H](Cc1ccncc1)C(=O)O; 2Thi = N[C@@H](Cc1cccs1)C(=O)O; Cha = N[C@@H](CC1CCCCC1)C(=O)O; Cit = NC(=O)NCCC[C@H](N)C(=O)O; Thr(3ξ) = CC(O)[C@H](N)C(=O)O; Carboxymethyl = O=C(O)C*; Orn = NCCC[C@H](N)C(=O)O; Dab = NCC[C@H](N)C(=O)O; Dap = NC[C@H](N)C(=O)O

Here are results for 14 molecules from US20250163104A1, “MACROCYCLIC IMMUNOMODULATORS” (priority 2021, published 2025).

The assay addresses T1, human PD-1 / PD-L1-Ig binding on Jurkat cell line over-expressing human PD-1 (Jurkat-PD-1) (Homo sapiens, UniProt Q15116).
T1 construct: expressed in transfected cells; host or cells: Jurkat
As to the kind of experiment: Jurkat-PD-1 Cell Binding High-Content Screening Assay (CBA). Type of assay: cell-based. Conditions: Jurkat-PD-1 cells, PE-labeled PD-L1-Ig 20 nM final; read-out: Jurkat HPD1_PDL1 IC50. The method in brief:
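Binding of fluorescent PD-L1-Ig (phycoerythrin linked via the Ig tag, 20 nM final) to PD-1-overexpressing Jurkat cells was imaged after a 2 h, 37° C compound pretreatment and 1 hour ligand incubation.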

T1 sequence (Q15116 25-288): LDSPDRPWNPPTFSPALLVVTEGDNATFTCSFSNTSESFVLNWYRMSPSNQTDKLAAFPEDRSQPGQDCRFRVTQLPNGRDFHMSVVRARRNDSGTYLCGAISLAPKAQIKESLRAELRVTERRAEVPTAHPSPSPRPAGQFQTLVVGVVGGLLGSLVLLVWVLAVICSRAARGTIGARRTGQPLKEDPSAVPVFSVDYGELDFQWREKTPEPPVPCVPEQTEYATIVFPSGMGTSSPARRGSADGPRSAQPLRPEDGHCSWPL

By IC50 is commonly meant the midpoint of a concentration-inhibition curve. As to `COc1cccc(C[C@@H]2NC(=O)[C@H](CC(=O)O)NC(=O)[C@H](Cc3ccncc3)NC(=O)[C@H](Cc3ccc(OCC(=O)O)cc3)NC(=O)CSC[C@@H](C(=O)N[C@@H](C)C(N)=O)NC(=O)[C@H]([C@@H](C)O)NC(=O)[C@H](C(C)C)NC(=O)[C@H](CC3CCCCC3)NC(=O)[C@H](CCN)NC(=O)[C@@H](CC(C)C)NC(=O)[C@H](CCCN)NC(=O)[C@H](CCC(=O)O)NC(=O)[C@H](Cc3ccc(-c4ccccc4)cc3)NC(=O)[C@H](C(C)C)NC2=O)c1` [Compound 1505] ({CH2CO}-Y(Carboxymethyl)[4Pal]D[Phe(3-OMe)]V[Bip]E[Orn][dL][Dab][Cha]VTCA-NH2; thioether N-14), the IC50 came out at 23.7 nM. For `CC(C)C[C@@H]1NC(=O)C(Cc2c[nH]c3ccccc23)NC(=O)[C@H](CC(=O)O)NC(=O)[C@H](Cc2ccc(O)cc2)NC(=O)[C@H](Cc2ccccc2)NC(=O)CSC[C@@H](C(=O)N[C@@H](C)C(N)=O)NC(=O)[C@H](CO)NC(=O)[C@H](C(C)C)NC(=O)[C@H](CC(C)C)NC(=O)[C@H](CC(N)=O)NC(=O)[C@@H](CC(C)C)NC(=O)[C@H](CN)NC(=O)[C@H](CCCNC(N)=O)NC(=O)[C@H](Cc2ccc(-c3ccccc3)cc2)NC1=O` (stereo partly drawn) [Compound 1217] ({CH2CO}-FYD[ξW]L[Bip][Cit][Dap][dL]NLVSCA-NH2; thioether N-14) the value was 25.4 nM; for `CC(C)C[C@@H]1NC(=O)[C@H](Cc2c[nH]c3ccccc23)NC(=O)[C@H](CC(=O)O)NC(=O)[C@H](Cc2ccc(O)cc2)NC(=O)[C@H](Cc2ccccc2)NC(=O)CSC[C@@H](C(=O)NCC(N)=O)NC(=O)[C@H](CO)NC(=O)[C@H](C(C)C)NC(=O)[C@H](CC(C)C)NC(=O)[C@H](CCN)NC(=O)[C@@H](C)NC(=O)[C@H](CCCN)NC(=O)[C@H](C(C)C)NC(=O)[C@H](Cc2ccc(-c3ccccc3)cc2)NC1=O` [Compound 1096] ({CH2CO}-FYDWL[Bip]V[Orn][dA][Dab]LVSCG-NH2; thioether N-14), 68.8 nM.

As for `Cc1cccc(C[C@@H]2NC(=O)[C@H](CC(=O)O)NC(=O)[C@H](Cc3ccc(OCC(=O)O)cc3)NC(=O)[C@H](Cc3ccc(OCC(=O)O)cc3)NC(=O)CSC[C@@H](C(N)=O)NC(=O)[C@H](CO)NC(=O)[C@H](C(C)C)NC(=O)[C@H](CC(C)C)NC(=O)[C@H](CCN)NC(=O)[C@@H](CC(C)C)NC(=O)[C@H](CCCN)NC(=O)[C@H](C(C)C)NC(=O)[C@H](Cc3ccc(-c4ccccc4)cc3)NC(=O)[C@H](CC(C)C)NC2=O)c1` [Compound 1649] ({CH2CO}-Y(Carboxymethyl)Y(Carboxymethyl)D[Phe(3-Me)]L[Bip]V[Orn][dL][Dab]LVSC-NH2; thioether N-14), the IC50 is 34.5 nM. Consider `CC(C)C[C@H]1NC(=O)[C@H](CCCN)NC(=O)[C@H](CCC(=O)O)NC(=O)[C@H](Cc2ccc(-c3ccccc3)cc2)NC(=O)[C@H](C(C)C)NC(=O)[C@H](Cc2cccc(Cl)c2)NC(=O)[C@H](CC(=O)O)NC(=O)[C@H](Cc2ccc(OCC(=O)O)cc2)NC(=O)[C@H](CN)NC(=O)CSC[C@@H](C(=O)N[C@@H](C)C(N)=O)NC(=O)[C@H]([C@@H](C)O)NC(=O)[C@H](C(C)C)NC(=O)[C@H](CC2CCCCC2)NC(=O)[C@H](CCN)NC1=O` [Compound 1495], for which the IC50 was 5.8 nM.

With `CC(C)C[C@H]1NC(=O)[C@H](CCCN)NC(=O)[C@H](Cc2ccc(C(=O)O)cc2)NC(=O)[C@H](Cc2ccc(-c3ccccc3)cc2)NC(=O)[C@H](Cc2ccc(C(=O)O)cc2)NC(=O)[C@H](Cc2cccc(C(F)(F)F)c2)NC(=O)[C@H](CC(=O)O)NC(=O)[C@H](Cc2ccc(C(=O)O)cc2)NC(=O)[C@H](CN2CCOCC2)NC(=O)CSC[C@@H](C(=O)N[C@@H](CCN)C(N)=O)NC(=O)[C@H](CO)NC(=O)[C@H](C(C)(C)O)NC(=O)[C@H](CC2CCCCC2)NC(=O)[C@H](CCN)NC1=O` [Example 2710] ({CH2CO}-[Ala(morpholin-4-yl)][Phe(4-COOH)]D[Phe(3-CF3)][Phe(4-COOH)][Bip][Phe(4-COOH)][Orn][dL][Dab][Cha][Val(3-OH)]SC[Dab]-NH2; thioether N-14), the IC50 is 1.2 nM.

For `CC(C)C[C@H]1NC(=O)[C@H](CCCN)NC(=O)[C@H](Cc2ccc(C(=O)O)cc2)NC(=O)[C@H](Cc2ccc(-c3ccccc3)cc2)NC(=O)[C@H](Cc2cccs2)NC(=O)[C@H](Cc2cccc(C(F)(F)F)c2)NC(=O)[C@H](CC(=O)O)NC(=O)[C@H](Cc2ccc(C(=O)O)cc2)NC(=O)[C@H](CN2CCOCC2)NC(=O)CSC[C@@H](C(=O)N[C@@H](CCN)C(N)=O)NC(=O)[C@H](CCC(=O)O)NC(=O)[C@H](C(C)C)NC(=O)[C@H](CC2CCCCC2)NC(=O)[C@H](CCN)NC1=O` [Example 2749] ({CH2CO}-[Ala(morpholin-4-yl)][Phe(4-COOH)]D[Phe(3-CF3)][2Thi][Bip][Phe(4-COOH)][Orn][dL][Dab][Cha]VEC[Dab]-NH2; thioether N-14), the IC50 amounted to 1.9 nM. For `Cc1ccc(C[C@@H]2NC(=O)[C@H](C(C)O)NC(=O)CSC[C@@H](C(=O)N[C@@H](CCN)C(N)=O)NC(=O)[C@H](CO)NC(=O)[C@H](C(C)(C)O)NC(=O)[C@H](CC3CCCCC3)NC(=O)[C@H](CCN)NC(=O)[C@@H](CC(C)C)NC(=O)[C@H](CCCN)NC(=O)[C@H](Cc3ccc(OCC(=O)O)cc3)NC(=O)[C@H](Cc3ccc(-c4ccccc4)cc3)NC(=O)[C@H](Cc3ccc(OCC(=O)O)cc3)NC(=O)[C@H](Cc3cccc(C)c3)NC(=O)[C@H](CC(=O)O)NC2=O)cc1` (stereo partly drawn) [Compound 2667] ({CH2CO}-[Thr(3ξ)][Phe(4-Me)]D[Phe(3-Me)]Y(Carboxymethyl)[Bip]Y(Carboxymethyl)[Orn][dL][Dab][Cha][Val(3-OH)]SC[Dab]-NH2; thioether N-14) the value was 11.4 nM; for `CC(C)C[C@H]1NC(=O)[C@H](CCCN)NC(=O)[C@H](CCCNC(N)=O)NC(=O)[C@H](Cc2ccc(-c3ccccc3)cc2)NC(=O)[C@H](C(C)C)NC(=O)[C@H](Cc2c[nH]c3ccccc23)NC(=O)[C@H](CC(=O)O)NC(=O)[C@H](Cc2cccc(Cl)c2)NC(=O)[C@H](CN)NC(=O)CSC[C@@H](C(=O)N[C@@H](C)C(N)=O)NC(=O)[C@H]([C@@H](C)O)NC(=O)[C@H](C(C)C)NC(=O)[C@H](CC2CCCCC2)NC(=O)[C@H](CCN)NC1=O` [Compound 2111] ({CH2CO}-[Dap][Phe(3-Cl)]DWV[Bip][Cit][Orn][dL][Dab][Cha]VTCA-NH2; thioether N-14), 33 nM. The result for `Cc1cccc(C[C@@H]2NC(=O)[C@H](CC(=O)O)NC(=O)[C@H](Cc3ccc(C(=O)O)cc3)NC(=O)[C@H](Cc3ccncc3)NC(=O)CSC[C@@H](C(=O)N[C@@H](C)C(N)=O)NC(=O)[C@H]([C@@H](C)O)NC(=O)[C@H](C(C)C)NC(=O)[C@H](CC3CCCCC3)NC(=O)[C@H](CCN)NC(=O)[C@@H](CC(C)C)NC(=O)[C@H](CCCN)NC(=O)[C@H](CCCNC(N)=O)NC(=O)[C@H](Cc3ccc(-c4ccccc4)cc3)NC(=O)[C@H](C(C)C)NC2=O)c1` [Compound 1190] reads 4.5 nM; that for `CC(C)C[C@H]1NC(=O)[C@H](CCCN)NC(=O)[C@H](CCCNC(N)=O)NC(=O)[C@H](Cc2ccc(-c3ccccc3)cc2)NC(=O)[C@H](C(C)C)NC(=O)[C@H](Cc2c[nH]c3ccccc23)NC(=O)[C@H](CC(=O)O)NC(=O)[C@H](Cc2ccc(OCC(=O)O)cc2)NC(=O)[C@H](CN)NC(=O)CSC[C@@H](C(=O)N[C@@H](C)C(N)=O)NC(=O)[C@H]([C@@H](C)O)NC(=O)[C@H](C(C)C)NC(=O)[C@H](CC2CC2)NC(=O)[C@H](CCN)NC1=O` [Compound 1363], 34.5 nM; that for `Cc1cccc(C[C@@H]2NC(=O)[C@H](CC(=O)O)NC(=O)[C@H](Cc3ccc(C(=O)O)cc3)NC(=O)[C@H](Cc3ccc(OCC(=O)O)cc3)NC(=O)CSC[C@@H](C(=O)N[C@H](Cc3ccc(O)cc3)C(=O)O)NC(=O)[C@H](CCCN)NC(=O)[C@H](C(C)C)NC(=O)[C@H](CC3CCCCC3)NC(=O)[C@H](CCN)NC(=O)[C@@H](CC(C)C)NC(=O)[C@H](CCN)NC(=O)[C@H](C(C)C)NC(=O)[C@H](Cc3ccc(-c4ccccc4)cc3)NC(=O)[C@H](C(C)C)NC2=O)c1` [Compound 2589] ({CH2CO}-Y(Carboxymethyl)[Phe(4-COOH)]D[Phe(3-Me)]V[Bip]V[Dab][dL][Dab][Cha]V[Orn]C[dY]-OH; thioether N-14), 34.3 nM. The result for `CC(C)C[C@H]1NC(=O)[C@H](CCCN)NC(=O)[C@H](CCCCN)NC(=O)[C@H](Cc2ccc(-c3ccccc3)cc2)NC(=O)[C@H](C(C)C)NC(=O)[C@H](Cc2c[nH]c3ccccc23)NC(=O)[C@H](CC(=O)O)NC(=O)[C@H](Cc2ccc(C(=O)O)cc2)NC(=O)[C@H](Cc2ccc(OCC(=O)O)cc2)NC(=O)CSC[C@@H](C(=O)N[C@@H](C)C(N)=O)NC(=O)[C@H]([C@@H](C)O)NC(=O)[C@H](C(C)C)NC(=O)[C@H](CC2CCCCC2)NC(=O)[C@H](CCN)NC1=O` [Compound 1385] ({CH2CO}-Y(Carboxymethyl)[Phe(4-COOH)]DWV[Bip]K[Orn][dL][Dab][Cha]VTCA-NH2; thioether N-14) reads 6.1 nM; that for `CC(C)C[C@H]1NC(=O)[C@H](CCCN)NC(=O)[C@H](CCCN)NC(=O)[C@H](Cc2ccc(-c3ccccc3)cc2)NC(=O)[C@H](C(C)C)NC(=O)[C@H](Cc2c[nH]c3ccccc23)NC(=O)[C@H](CC(=O)O)NC(=O)[C@H](Cc2ccc(O)cc2)NC(=O)[C@H](CC(N)=O)NC(=O)CSC[C@@H](C(=O)N[C@@H](C)C(N)=O)NC(=O)[C@H]([C@@H](C)O)NC(=O)[C@H](C(C)C)NC(=O)[C@H](CC2CCCCC2)NC(=O)[C@H](CCN)NC1=O` [Compound 1378] ({CH2CO}-NYDWV[Bip][Orn][Orn][dL][Dab][Cha]VTCA-NH2; thioether N-14), 13.7 nM.
